In publication PMC9849758, “Chemically diverse activity-based probes with unexpected inhibitory mechanisms targeting trypsin-like serine proteases” (Frontiers in Chemistry, 2023):
Structures can show the parent of a compound that is named as a salt.

Columns and labels:
CatG = biological target: T1, CatG (Homo sapiens, UniProt P08311); test: Labeling and detection of recombinant proteases (SDS-PAGE blot, NeutrAvidin-HRP); type: binding; settings: 1 µM ABP, 100 ng protease, 30 min 37°C, denaturing SDS-PAGE blot
T1 sequence (P08311 21-255): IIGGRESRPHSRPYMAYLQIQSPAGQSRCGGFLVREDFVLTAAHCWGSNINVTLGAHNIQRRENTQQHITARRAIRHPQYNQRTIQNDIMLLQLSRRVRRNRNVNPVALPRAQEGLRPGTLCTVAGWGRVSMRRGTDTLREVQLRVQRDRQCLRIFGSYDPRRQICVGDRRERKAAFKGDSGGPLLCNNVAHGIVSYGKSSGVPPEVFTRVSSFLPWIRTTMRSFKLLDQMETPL
Procedure: (§1) Recombinant proteases (100 ng) were labeled with 1 µM ABP in reaction buffer in a final volume of 40 µL for 30 min at 37°C. After the addition of 4X Laemmli buffer (Bio-Rad, GmbH) supplemented with Bond-Breaker Tris (2-CarboxyEthyl)Phosphine (TCEP) Solution (Thermo Scientific, United States), the samples were heated at 95°C for 5 min and loaded into 4%–20% Mini-Protean TGX precast gels (Bio-Rad, GmbH). After electrophoresis, the proteins were blotted onto nitrocellulose membranes using the Trans-Blot Transfer Turbo System (Bio-Rad). Membranes were incubated with NeutrAvidin-HRP (1:50,000), and bands were visualized with ECL Select Western Blot Detection Reagent (GE Healthcare Life Sciences) by chemiluminescence (Chemidoc XRS; Bio-Rad). The molecular weight of each band was determined with the Image Lab Software v5 (Bio-Rad).
(§2) To further characterize the newly synthesized compounds and their potential to be used as ABPs, nine desthiobiotin probes were used for the labeling and detection of recombinant proteases. The arginine (45b–46b) and the proline-lysine (58b) desthiobiotin probes were used as reference compounds. Whereas the benzyl guanidine (50b, 52b, 54b) and phenyl guanidine probes (55b–57b) were used to determine whether the mechanism of inhibition (reversible or irreversible) is an obstacle to visualize the proteases. Samples of human recombinant proteases (trypsin-3, β-tryptase, and CatG) were incubated with the different probes before electrophoresis and detection with NeutrAvidin-HRP on a Western blot. Figure 7A illustrates the ability of the desthiobiotin probes to indicate the presence of the corresponding trypsin-like enzyme. […] This effect can be explained due to the strong interactions between the active site of the protease and the probes. The high affinity and the slow off-rates were described in Table 5 by the equilibrium constants KI*. Assuming that there is an excess of inhibitor over enzyme, the free inhibitor concentration must be very low, lower than the KI*, in order for the complex to dissociate. Therefore, the high affinity complex E*I survives during the whole process of labeling, gel electrophoresis, and visualization.

Trypsin-3 = biological target: T2, Trypsin-3 (Homo sapiens, UniProt P35030); test: as above; type: binding; settings: 1 µM ABP, 100 ng protease, 30 min 37°C, denaturing SDS-PAGE blot
T2 sequence (P35030 1-304): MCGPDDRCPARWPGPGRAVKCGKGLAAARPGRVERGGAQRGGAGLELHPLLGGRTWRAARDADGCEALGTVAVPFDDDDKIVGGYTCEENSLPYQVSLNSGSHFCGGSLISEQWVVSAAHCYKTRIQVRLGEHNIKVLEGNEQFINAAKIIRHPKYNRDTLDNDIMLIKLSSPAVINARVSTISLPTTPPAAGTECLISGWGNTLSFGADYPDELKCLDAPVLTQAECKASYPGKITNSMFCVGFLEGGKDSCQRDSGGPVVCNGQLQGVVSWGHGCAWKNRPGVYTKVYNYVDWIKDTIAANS
Procedure: as §1, §2

## C[C@@H]1NC(=O)N[C@@H]1CCCCCC(=O)NCCOCCOCCOCCn1cc(CCCOC(=O)NC(Cc2ccc(NC(=N)N)cc2)P(=O)(Oc2ccccc2)Oc2ccccc2)nn1 (stereo partly drawn) [50b, 3-(1-(18-((4R,5S)-5-methyl-2-oxoimidazolidin-4-yl)-13-oxo-3,6,9-trioxa-12-azaoctadecyl)-1H-1,2,3-triazol-4-yl)propyl (1-(diphenoxyphosphoryl)-2-(4-guanidinophenyl)ethyl)carbamate trifluoroacetate salt]
CatG
  labeling of recombinant CatG: can label
Trypsin-3
  labeling of recombinant trypsin-3: can label

## CC(=O)Nc1ccc(OP(=O)(Oc2ccc(NC(C)=O)cc2)C(Cc2ccc(NC(=N)N)cc2)NC(=O)OCCCc2cn(CCOCCOCCOCCNC(=O)CCCCC[C@H]3NC(=O)N[C@H]3C)nn2)cc1 (stereo partly drawn) [52b]
CatG
  labeling of recombinant CatG: can label
Trypsin-3
  labeling of recombinant trypsin-3: can label

## C[C@@H]1NC(=O)N[C@@H]1CCCCCC(=O)NCCOCCOCCOCCn1cc(CCCOC(=O)NC(Cc2ccc(NC(=N)N)cc2)P(=O)(Oc2ccc(Cl)cc2)Oc2ccc(Cl)cc2)nn1 (stereo partly drawn) [54b]
CatG
  labeling of recombinant CatG: can label
Trypsin-3
  labeling of recombinant trypsin-3: can label
